Experimental data reported in patent publication US20240108598A1, “Danegaptide for Use in the Treatment or Prevention of a Kidney Disease” (CIANA THERAPEUTICS APS, priority 2021, published 2024).

Assays:
[1] = test system: primary hPTECs; assay: qPCR of cell cycle and reno-protective marker mRNA; format: cell-based, human; settings: 12 h
Procedure: Primary hPTECs were cultured in low (5 mM) glucose±TGFβ1 (10 ng/mL)±danegaptide (100 nM) for 12 h. […] Danegaptide (100 nM) negated the increase in p16, p21, cyclinD1 (▴▴▴P<0.001; mean±SEM, n=3) and partly reversed the TGFβ1-evoked change in Klotho.
To determine if danegaptide can negate hemichannel-mediated regulation of common cell cycle and reno-protective markers, hPTECs were incubated with TGFβ1 (10 ng/mL)±danegaptide (100 nM) for 12 h and expression of candidate gene mRNA assessed through qPCR analysis.
RNA was extracted using an RNeasy mini kit (QIAGEN) and reverse transcribed (Invitrogen). Real-time PCR (SYBR GreenER, Invitrogen) was performed using a StepOne Plus instrument (Applied Biosystems Inc, Foster City, CA). cDNA expression was obtained by comparing to a standard curve of serially-diluted cDNA. The following primers were used: p16 (forward: […], reverse: […]), p21 (forward: […], reverse: […]), cyclinD1 (forward: […], reverse: […]), Klotho (forward: […], reverse: […]). Melt curve analysis confirmed primer specificity and checked for potential contamination.

[2] = test system: HK2 cells; assay: Crystal violet assay; format: cell-based, human; settings: 48 h
Procedure: HK2 cells were cultured in low glucose (5 mM) for 48 h, prior to being serum-starved overnight and subsequently treated with TGFβ1 (10 ng/mL)±danegaptide (50 nM-1 μM) for 48 h (FIG. 1A, n=3).
This simple assay was used to measure the relative density of adhered cells to multi-well dishes. Crystal Violet stains DNA and can be quantified colourmetrically after solubilisation. HK2 cells were seeded in 12-well plates and cultured in low glucose DMEM/F12 (5 mM) for 48 h, prior to overnight serum-starvation, then subsequently stimulated for 48 h with TGFβ1 (10 ng/ml)±danegaptide (50-1000 nM). The assay has been described previously (Hills, C. E.; Jin, T.; Siamantouras, E.; Liulssac, I. K. K.; Jefferson, K. P.; Squires, P. E. “Special K” and a Loss of Cell-To-Cell Adhesion in Proximal Tubule-Derived Epithelial Cells: Modulation of the Adherens Junction Complex by Ketamine. PLoS One 2013, 8, e71819). Briefly, cells were fixed using paraformaldehyde for 10 mins, washed with PBS and incubated for 10 mins at RT in a 1% crystal violet solution. After several more washes, the stain was solubilised using 1% SDS, and absorbance measured by a plate reader.

[3] = TGFβ1 10 ng/mL + danegaptide 100 nM

Row | Compound | Klotho mRNA expression, of control ([1]; TGFβ1 10 ng/mL alone) | cyclinD1 mRNA expression, of control ([1]; TGFβ1 10 ng/mL alone) | p16 mRNA expression, of control ([1]; TGFβ1 10 ng/mL alone) | p21 mRNA expression, of control ([1]; TGFβ1 10 ng/mL alone) | crystal violet staining, of control ([2]; TGFβ1 10 ng/mL + danegaptide 50 nM) | crystal violet staining, of control [2, 3] | crystal violet staining, of control ([2]; TGFβ1 10 ng/mL + danegaptide 1 μM) | crystal violet staining, of control ([2]; danegaptide alone 50 nM) | crystal violet staining, of control ([2]; danegaptide alone 100 nM) | crystal violet staining, of control ([2]; danegaptide alone 1 μM) | Klotho mRNA expression, of control [1, 3] | cyclinD1 mRNA expression, of control [1, 3] | p16 mRNA expression, of control [1, 3] | p21 mRNA expression, of control [1, 3]
1 | TGFβ1: Recombinant hTGFβ1 (Sigma); pro-fibrotic cytokine used to stimulate the cells [reference compound] | 43.3±3.8% | 253.2±7.7% | 358.8±21.1% | 221.8±12.9% |  |  |  |  |  |  |  |  |  | 
2 | NCC(=O)N1C[C@H](NC(=O)c2ccccc2)C[C@H]1C(=O)O [danegaptide, (2S,4R)-1-(2-aminoacetyl)-4-benzamidopyrrolidine2-carboxylic acid] |  |  |  |  | 98.2±1.9% | 97.5±1.8% | 85.8±5.3% | 98.3±2.5% | 99.6±2.7% | 98.5±2.2% | 59.9±11.7% | 132.9±15.0% | 193±18.5% | 142.2±6.2%
